Results published in patent US20090143419A1, “METHODS AND COMPOSITIONS FOR CONTROLLING ECTOPARASITES” (HATCHTECH PTY LTD, priority 2005, published 2009).

What was measured:
[1] = test system: Plutella xylostella eggs (Waite strain); experiment: Effect of added metal ions (FeSO4) on inhibition of Plutella xylostella egg hatching; format: in vivo; conditions: Table 18
Experimental: Within 24 hours of collection the following experimental design was chosen. Batches of eggs were exposed to either 10 mM 6,6′-dimethyl-2,2′-dipyridyl or solvent only (methanol) for 2 seconds. All batches of eggs were allowed to air dry for 20 minutes at room temperature. The eggs were then given a 2 second exposure to FeSO4 at either 10, 5 or 1 mM, air dried and put in the incubator at 24° C. and allowed to hatch over the next 6 days. In addition, a positive control of 10 mM 6,6′-dimethyl-2,2′-dipyridyl was set up in which eggs were exposed to this compound for 2 seconds, air dried and placed in the incubator.
Within 24 hours of collection the following experimental design was chosen. Batches of eggs were exposed to 10 mM 5,5′dimethyl-2,2′-dipyridyl or solvent only (methanol) for 2 seconds. All batches of eggs were allowed to air dry for 20 minutes at room temperature. The eggs were then given a 2 second exposure to FeSO4 at 10, 5 or 1 mM, air dried and put in an incubator at 24° C. and allowed to hatch over the next 6 days. In addition, a positive control of 10 mM, 5,5′-dimethyl-2,2′-dipyridyl was set up in which eggs were exposed to this compound for 2 seconds, air dried and placed in the incubator.

[2] = test system: Helicoverpa armigera eggs (Tatura×Toowoomba strains); experiment: Egg hatching of Helicoverpa armigera; conditions: Table 15; 10 mM
Experimental: Several hundred Helicoverpa armigera eggs (Tatura×Toowoomba strains) were collected, that had been laid on fine mesh cloth over a 24 hour period.
Batches of Helicoverpa eggs were exposed to a specific inhibitor solution for between 2-10 seconds the excess solution drained by blotting with dry tissue paper. The egg masses were then placed in a humid box at 25 degrees until egg hatch. Control eggs were exposed to absolute methanol as described above.

[3] = test system: Plutella xylostella eggs (Waite strain); experiment: Egg hatching of Plutella xylostella; conditions: for % Inhibition: relative to controls
Experimental: The egg masses were then placed in a humid box at 25 degrees until egg hatch. Control eggs were exposed to absolute methanol as described above. At day 6 post laying the eggs were assessed from the different treatments and the percentage of egg hatch determined relative to the control as shown in Table 9.
Batches of Plutella eggs that were laid on either fine cloth or parafilm were dipped in a specific inhibitor solution for between 2-10 seconds, the excess solution was drained by blotting with dry tissue paper. The egg masses were then placed in a humid box at 25 degrees until egg hatch. Control eggs were exposed to absolute methanol as described above or not treated. At day 6 post laying the eggs were assessed from the different treatments and the percentage of egg hatch determined relative to the controls as shown in Tables 10 and 11.
Batches of Plutella eggs that were laid on fine cloth were dipped in a specific inhibitor solution for approximately 2 seconds, the excess solution was drained by blotting with dry tissue paper. The egg masses were then placed in a humid box at 25 degrees until egg hatch. Control eggs were exposed to absolute methanol as described above or not treated. At day 6 post laying the eggs were assessed from the different treatments and the percentage of egg hatch determined relative to the control as shown in Table 12.
The egg masses were then placed in a humid box at 25 degrees until egg hatch. Control eggs were exposed to absolute ethanol as described above. On day 6 post laying the eggs were assessed from the different treatments and the percentage of egg hatch determined relative to the control.

[4] = test system: lice eggs; experiment: Time-course in vitro lice egg hatching assay; format: in vivo, clothing lice (Pediculus humanus humanus); conditions: 10 mM
[5] = test system: B. ovis eggs; experiment: Egg hatching in Bovicola ovis; format: in vivo; conditions: 10 mM, 10 eggs per replicate
Experimental: B. ovis eggs were collected from the wool of sheep that were infested with this parasite. The eggs were collected using forceps and with the aid of a dissecting microscope and placed in 24 well tissue culture plates in duplicate lots of 10 eggs per replicate. The eggs were then exposed to either methanol alone (solvent control) or the test compounds for either 10 minutes or 1 minute or left as untreated controls before being removed from the wells and placed into individual glass vials containing a diet at the base of the tube. The tubes were placed in plastic containers containing a salt solution (to keep humidity constant at 68%) and the containers maintained at a temperature 32° C. The eggs were monitored for hatching over the following 12 days and % hatch inhibition determined in comparison to the controls.

[6] = 10 mM inhibitor alone, (+ve) control
[7] = 10 mM inhibitor followed by 2 second exposure to 1 mM FeSO4
[8] = 10 mM inhibitor followed by 2 second exposure to 5 mM FeSO4
[9] = 10 mM inhibitor followed by 2 second exposure to 10 mM FeSO4
[10] = 10 mM inhibitor followed by 2 second exposure to MEOH
[11] = Table 10, 1 mM, eggs laid on cloth
[12] = Table 10, 10 mM, eggs laid on cloth
[13] = Table 11, 1 mM, eggs laid on parafilm
[14] = Table 11, 10 mM, eggs laid on parafilm
[15] = Table 12, 0.01 mM, cloth, dipped approximately 2 seconds
[16] = Table 12, 0.1 mM, cloth, dipped approximately 2 seconds
[17] = Table 12, 1 mM, cloth, dipped approximately 2 seconds
[18] = Table 12, 10 mM, cloth, dipped approximately 2 seconds
[19] = Table 13, 0.1 mM, cloth, dipped approximately 2 seconds
[20] = Table 13, 1 mM, cloth, dipped approximately 2 seconds

## Cc1ccc(-c2ccc(C)cn2)nc1 [5,5′-dimethyl-2,2′-dipyridyl]
[1]; [6]
  % Inhibition: 100%
  Number hatched: 0
  Number unhatched: 38
[1]; [7]
  Number hatched: 39
  Number unhatched: 0
[1]; 10 mM inhibitor followed by 2 second exposure to 1 mM FeSO4, relative to the FeSO4 only controls
  % Inhibition: 0%
[1]; [8]
  Number hatched: 25
  Number unhatched: 0
[1]; 10 mM inhibitor followed by 2 second exposure to 5 mM FeSO4, relative to the FeSO4 only controls
  % Inhibition: 0%
[1]; [9]
  Number hatched: 23
  Number unhatched: 2
[1]; 10 mM inhibitor followed by 2 second exposure to 10 mM FeSO4, relative to the FeSO4 only controls
  % Inhibition: 8%
[1]; [10]
  Number hatched: 16
  Number unhatched: 19
[2]
  Number hatched: 0
  Number unhatched: 42
[3]; [11]
  Number hatched: 5
  Number unhatched: 22
  % Inhibition: 78%
[3]; [12]
  Number hatched: 0
  Number unhatched: 21
  % Inhibition: 100%
[3]; [13]
  Number hatched: 18
  Number unhatched: 151
  % Inhibition: 88%
[3]; [14]
  Number hatched: 0
  Number unhatched: 142
  % Inhibition: 100%
[3]; [15]
  Number hatched: 37
  Number unhatched: 3
[3]; [16]
  Number hatched: 22
  Number unhatched: 16
[3]; [17]
  Number hatched: 1
  Number unhatched: 45
[3]; [18]
  Number hatched: 0
  Number unhatched: 68
[3]; [19]
  Number hatched: 32
  Number unhatched: 52
[3]; [20]
  Number hatched: 2
  Number unhatched: 118
[4]
  % Inhibition of lice egg hatching (maximum over the time-course): 100%
[5]; 1 minute exposure
  Number unhatched: 10
[5]; 10 minute exposure
  Number unhatched: 10
